Patent US9101603B2, “Targeting of CYP1B1 in the treatment of head and neck cancer and lung cancer” (Institute for Cancer Research, priority 2010, dated 2015)

Key:
Type in all cases: cell-based
[1] = system: MSK-Leuk1 cells; experiment: Cell motility assay (scratch gap closure, 16 h), vector- or CYP1B1 shRNA-expressing cells; conditions: 1 nM E2, vector- and CYP1B1 shRNA-expressing MSK-Leuk1 cells
Protocol: (§1) For all the experiments that involved estradiol (E2) exposure, MSK-Leuk1 cells were cultured in phenol red-free and serum-free DermaLife® K Medium (Lifeline Cell Technology, Walkersville, Md.). SCC cells were cultured in their respective media with no phenol red, supplemented with charcoal-stripped serum (Gibco, Carlsbad, Calif.). Cells were incubated for 48 h to remove endogenous estrogens and then plated at 70% confluence. After 24 h, the medium was replaced with either control medium containing vehicle (0.01% ethanol) or medium supplemented with 1 nM E2 (Sigma-Aldrich, St. Louis, Mo.). Cells were harvested after the appropriate treatment period and analyzed.
Cell motility assay. MSK-Leuk1 cells, expressing either vector or CYP1B1 shRNA, were cultured in phenol red-free and serum-free medium for 48 h and then plated at 70% confluence. After 24 h, the cells were treated with either vehicle or E2 (1 nM) in triplicate, as described above. […] The area devoid of cells was measured on every image using MetaMorph 7.0 (Molecular Devices, Inc., Sunnyvale, Calif.). The gap closure percentages were calculated as (area at 0 h−area at 16 h)/(area at 0 h).
In addition, a time-lapse movie capturing the process of gap closure in vector-expressing MSK-Leuk1 cells was obtained. […] The percentage of proliferating cells (those rounded up for cell division) was counted in this representative area.

[2] = system: MSK-Leuk1 cells; experiment: Cell proliferation (total DNA content, Fluorescent DNA Quantitation kit); conditions: vector-expressing cells; 1 nM E2; 72 h; not statistically significant
Protocol: as §1
Cell proliferation. Fifty thousand cells/well were plated in 6-well plates. After the appropriate treatment, the DNA content of the cells, an indirect measure of proliferation, was determined using a Fluorescent DNA Quantitation kit (Bio-Rad Laboratories, Hercules, Calif.). In brief, cells were harvested, sonicated in 0.1×TEN assay buffer (Bio-Rad Laboratories) for 5 s, and incubated with a Hoechst dye mixture (BioRad Laboratories) for 1 h. Total DNA was measured using Fluoroscan Ascent FL (Thermo Fisher Scientific, Waltham, Mass.) at an excitation wavelength of 360 nm and an emission wavelength of 460 nm.

[3] = system: MSK-Leuk1 cells; experiment: Apoptosis assay (Guava Nexin kit, annexin V positive cells); conditions: 72 h; for decrease of apoptosis by exposure to E2: 1 nM E2; for effect on the E2-mediated decrease in apoptosis: fulvestrant 1 μM added to 1 nM E2
Protocol: as §1
Apoptosis assay. Apoptosis was assessed using the Guava Nexin kit (Millipore, Billerica, Mass.). Fifty thousand cells were plated per well in 6-well plates. After the appropriate treatment, floating cells were collected, combined with attached cells following trypsinization, and resuspended in DermaLife® K Medium (Lifeline Cell Technology, Walkersville, Md.) supplemented with 5% FBS. The cell suspension (100 μl) was incubated with 100 μl of Guava® Nexin Reagent for 20 min, according to the manufacturer's instructions. Two thousand cells were analyzed from each sample using the Guava® EasyCyte™ system, and the resulting data were expressed as a percentage of apoptotic cells (annexin V positive cells/total number of cells counted).

SMILES | effect of E2 treatment on motility [1] | induction of cell proliferation by E2 exposure [2] [%] | decrease of apoptosis by exposure to E2 ([3]; CYP1B1 shRNA-expressing cells, P=0.015) [%] | decrease of apoptosis by exposure to E2 ([3]; vector-expressing cells, P=0.030) [%] | effect on the E2-mediated decrease in apoptosis [3] | effect on the E2-mediated decrease in apoptosis ([3]; listed as Fulvestrant)
C[C@]12CC[C@@H]3c4ccc(O)cc4CC[C@H]3[C@@H]1CC[C@@H]2O [E2, 17β-estradiol] | not affected | 10 | 30.1 | 25.5 |  | 
C[C@]12CC[C@@H]3c4ccc(O)cc4C[C@@H](CCCCCCCCC[S+]([O-])CCCC(F)(F)C(F)(F)F)[C@H]3[C@@H]1CC[C@@H]2O (stereo partly drawn) [fulvestrant] |  |  |  |  | restored | restores
